In patent US4569801A, “Alkylsulfonamidophenylalkylamines” (priority 1984, dated 1986):
Like-named read-outs stand apart in the source and are kept apart here.

Experiments:
[1] = system: normal canine Purkinje fibers; assay: Action potential duration of normal canine Purkinje fibers superfused in vitro (standard electrophysiological techniques); assay type: cell-based; settings: Canis lupus familiaris, 10^-7 M, Ringer's solution at 35° C., driven at 1 Hz, read-out: Percent Increase in Action Potential Duration (at 95% of full repolarization)
Procedure: The antiarrhythmic activity of the compounds provided by the present invention was determined by the use of standard electrophysiological techniques to measure resting potential, action potential amplitude, duration, rate of rise and effective refractory periods of normal canine Purkinje fibers superfused in vitro with Ringer's solution at 35° C. and driven at a constant frequency of 1 Hz. Table 1 presents the data obtained for a number of compounds of the invention when evaluated in this test. The data presented is the percent increase in the action potential duration at 95% of full repolarization at 10^-7 M.

[2] = system: ventricular effective refractory period; assay: Ventricular effective refractory period in halothane-anesthetized dogs; assay type: in vivo; settings: for ED (+30 msec): Canis lupus familiaris; for I.D./I.V. (ratio of intraduodenal to intravenous dose): ratio of doses for +30 msec refractory period
Procedure: Certain of the compounds of the present invention were tested in halothane-anesthetized dogs in an effort to evaluate the effectiveness of the compounds in increasing the ventricular effective refractory period. Table 2 provides the quantity of specified compound in mg/kg necessary to increase the aforementioned refractory period by 30 msec. when administered either intravenously or intraduadenally. The compounds were tested against clofilium and N-ethyl-N-heptyl-4-nitrobenzenebutanamine, ethanedioic acid for comparative purposes.

[3] = clofilium and similar quaternary ammonium salts; background; cited from earlier work
[4] = intraduodenal, read-out: quantity of compound necessary to increase the ventricular effective refractory period by 30 msec., Intraduodenal
[5] = intravenous, read-out: quantity of compound necessary to increase the ventricular effective refractory period by 30 msec., Intravenous

Structure (SMILES)	activation at 0.1 µM [1] [%]	ED (+30 msec) [2, 4] [mg/kg]	ED (+30 msec) [2, 5] [mg/kg]	I.D./I.V. (ratio of intraduodenal to intravenous dose) [2]	oral bioavailability [3]
CCCCCCCN(CC)CCCCc1ccc(NS(C)(=O)=O)cc1 [Example 1, N-[4-[4-(Ethylheptylamino)butyl]phenyl]methanesulfonamide ethanedioate]	31 ± 6	2.2	0.29	8	–
CCCCCCCN(CC)C(C)CCCc1ccc(NS(C)(=O)=O)cc1 (centres unmarked) [Example 2, N-[4-[4-(Ethylheptylamino)pentyl]phenyl]methanesulfonamide 2-hydroxy-1,2,3-propanetricarboxylate]	–	8	0.27	30	–
CCCCCCCN(CCCC)CCCCc1ccc(NS(C)(=O)=O)cc1 [Example 3, N-[4-[4-(Butylheptylamino)butyl]phenyl]methanesulfonamide ethanedioate]	26 ± 4	2.4	0.1	24	–
CCCCCCCN(CCCC)C(C)CCCc1ccc(NS(C)(=O)=O)cc1 (centres unmarked) [Example 4, N-[4-[4-(Butylheptylamino)pentyl]phenyl]methanesulfonamide]	–	4	0.25	16	–
CCCCCCCN(CC)CCCCc1cccc(NS(C)(=O)=O)c1 [Example 7, N-[3-[4-(Ethylheptylamino)butyl]phenyl]methanesulfonamide]	20 ± 9	–	–	–	–
CCCCCCCN(CC)CCCCc1ccc(NS(=O)(=O)CC)cc1 [Example 8, N-[4-[4-(Ethylheptylamino)butyl]phenyl]ethanesulfonamide]	19 ± 4	–	–	–	–
CCCCCCCN(CC)CCCCc1ccc([N+](=O)[O-])cc1.O=C(O)C(=O)O [N-ethyl-N-heptyl-4-nitrobenzenebutanamine, ethanedioic acid, reference compound]	–	1.1	0.06	18	–
CCCCCCC[N+](CC)(CC)CCCCc1ccc(Cl)cc1 [clofilium, 4-chloro-N,N-diethyl-N-heptylbenzenebutanaminium phosphate, reference compound]	–	7	0.18	39	marginal oral bioavailability
